Measurements published in patent publication US7981893B2, “Heteroaryl compounds, compositions thereof, and methods of treatment therewith” (Signal Pharmaceuticals, LLC, priority 2006, dated 2011).

Legend:
[1] = target: T1, mTOR (Homo sapiens, UniProt P42345); assay: mTOR HTR-FRET Assay; assay type: biochemical; settings: HTR-FRET screening assay, GST-p70S6 kinase fragment substrate
T1 construct: Dilute TOR fraction 1:14 in “Simple TOR Buffer”
Method: The following is an example of an assay that can be used to determine the mTOR inhibitory activity of a test compound. Reagents are prepared as follows:
“Simple TOR buffer” (used to dilute high glycerol TOR fraction): 10 mM Tris pH 7.4, 100 mM NaCl, 0.1% Tween-20, 1 mM DTT (from 1M stock frozen at −20° C. just prior to use). For convenience a large quantity of “Simple TOR buffer” w/o DTT can be stored at 4° C. It can be brought to room temperature and DTT added just prior to dilution of TOR fraction.
5×KB/5×Mn/5×ATP solution (used to dilute substrate GST-p70S6kin 81 a.a. just prior to use) (40 ml screen quantity shown):
Enzyme solution: Dilute TOR fraction 1:14 in “Simple TOR Buffer”. For current lot that is 640 μg/ml TOR fraction diluted 14× to yield 45.7 μg/ml TOR in buffer (i.e. 7.85 ml TOR pooled fraction+102.1 ml Simple TOR buffer=110 ml 14× diluted TOR fraction). Each Enzyme Lot must be QC'd prior to assay.
Substrate solution: This may be prepared just prior to assay if preferred. Dilute 5.3 mg/ml GST-p70S6kinase fragment stock to 3.5 μg/ml (97 nM) working stock in 5×KB/5×Mn/5×ATP solution (i.e. 26.41 μL (5.3 mg/ml) GST-p70S6+40 ml 5×KB/5×Mn/5×ATP=40 ml 3.5 μg/ml (97 nM)).
Assay Buffer (for dilution of Antibodies used in Antibody Detection Reagent):
Antibody Detection Reagent (this reagent should be made just prior to addition to Assay Plates):
Using PlateTrak program (Screen) or Matrix Pipettor (SAR), 19.5 μL of diluted TOR fraction is added to assay plate in all test, reference or positive control wells. 19.5 μL of “Simple TOR buffer” is added to all negative control wells. If treating multiple plates with the same compounds, can increase volume of enzyme to multiples of 19.5 μL in a tall 384 well polypropylene plate.
Using EP3, 0.5 μl of test, reference or control DMSO is added to each well with mixing. Plates are incubated for 30 minutes at room temperature.
Using PlateTrak program (Screen) or Matrix Pipettor (SAR) 5 μL of 5×KB/5×Mn/5×ATP/5× substrate solution is added to each well of the assay plate to start the reaction. The solutions are mixed well and incubated for 2 hours at room temperature.
Using PlateTrak program (Screen) or Matrix Pipettor (SAR) 5 μL of 60 mM EDTA is added to stop the reaction. The solutions are mixed well and allowed to sit for 15-20 minutes before the next step.
Using PlateTrak program (Screen) or Matrix Pipettor (SAR) 10 μl of Antibody Detection Reagent is added. The solutions are mixes well and incubated for 5 hours to O/N to allow antibodies to form complexes with phosphorylated substrate.
Plates are read on AnalystHT using protocol Multi-Method protocol.

[2] = target: T2, PKCθ (Homo sapiens, UniProt Q04759); assay: PKCθ IMAP Assay; assay type: biochemical; settings: IMAP fluorescence polarization screening assay, 35 μM ATP
T2 construct: purchased Invitrogen
Method: The following is an example of an assay that can be used to determine the PKCθ inhibitory activity of a test compound. Reagents are prepared as follows:
Assay Buffer: 50 mM HEPES (pH 7.6), 10 mM MgCl, 0.1 mM EDTA, 5 mM MBP, 0.01% Triton, 1 mM DTT, 0.05 mg/ml phosphatidyl serine, 0.05 mg/ml diacylglycerol.
The final concentration of PKCθ (Invitrogen) is 0.5 nM. The final concentration of substrate (FAM-AKRRRLSSLRA) (Molecular Devices) is 100 nM. The final concentration of ATP in the reaction is 35 μM. The final concentration of DMSO in the reaction is 2.5%.
Enzyme is kept in 5 μl aliquots and stored at −80° C. prior to use. Test compound is allowed to pre-incubate with enzyme for 45 minutes before the reactions is initiated.
The reaction mixture consists of: 5 μl of test compound in 10% DMSO, 5 μl of 400 nM substrate (FAM-AKRRRLSSLRA), 5 μl of […] PKCθ, and 5 μl of 140 μM ATP (ATP is added to the reaction mixture last to initiate the reaction) per well.
The reaction is allowed to proceed for 60 minutes and is terminated by adding 30 μl per well of 90% Progressive A buffer/10% Progressive B buffer and a 1:400 dilution of binding beeds (Molecular Devices).
The reaction is given a binding incubation time of at least 30 minutes prior to reading the fluorescence polarization signal on an Analyst reader (the following detector settings are used: fluorescein excitation-485 nm, fluorescein emission-530 nm, fluorescein dichroic-505 nm).

T2 sequence (Q04759 whole entry): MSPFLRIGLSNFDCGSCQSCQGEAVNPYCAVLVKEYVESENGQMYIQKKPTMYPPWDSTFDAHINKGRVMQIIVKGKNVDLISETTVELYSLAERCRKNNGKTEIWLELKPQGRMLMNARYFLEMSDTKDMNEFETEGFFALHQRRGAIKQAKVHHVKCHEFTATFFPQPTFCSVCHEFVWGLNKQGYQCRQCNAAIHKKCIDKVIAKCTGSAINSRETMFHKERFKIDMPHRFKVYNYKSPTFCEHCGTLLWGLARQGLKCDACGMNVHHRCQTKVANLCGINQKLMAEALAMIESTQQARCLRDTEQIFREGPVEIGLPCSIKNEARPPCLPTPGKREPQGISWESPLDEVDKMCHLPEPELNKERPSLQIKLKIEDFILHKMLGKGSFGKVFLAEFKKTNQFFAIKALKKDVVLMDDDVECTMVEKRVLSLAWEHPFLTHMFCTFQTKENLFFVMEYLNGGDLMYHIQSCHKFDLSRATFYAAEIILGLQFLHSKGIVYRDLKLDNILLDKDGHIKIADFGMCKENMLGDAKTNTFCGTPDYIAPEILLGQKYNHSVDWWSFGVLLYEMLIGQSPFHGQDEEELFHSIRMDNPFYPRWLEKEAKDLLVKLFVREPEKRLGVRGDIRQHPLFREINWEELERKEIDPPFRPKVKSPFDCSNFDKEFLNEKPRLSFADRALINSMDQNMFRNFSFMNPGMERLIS

SMILES | IC50 [1] | IC50 [2] | melting point
O=c1[nH]c2ncc(-c3cccc4ncccc34)nc2n1C1CCC(O)CC1 (stereo not drawn) [Compound 59, 1-((1s,4s)-4-hydroxycyclohexyl)-6-(quinolin-5-yl)-1H-imidazo[4,5-b]pyrazin-2(3H)-one] | 10.1 to 20 µM | 10.1 to 20 µM | 
C[C@H](c1ccccc1)n1c(=O)[nH]c2cnc(-c3cccc4ncccc34)cc21 [Compound 24, (R)-1-(1-phenylethyl)-6-(quinolin-5-yl)-1H-imidazo[4,5-c]pyridin-2(3H)-one] | > 30 µM | > 30 µM | 
CC(c1ccccc1)n1c(=O)[nH]c2ncc(-c3ccc4ncccc4c3)nc21 (stereo not drawn) [Compound 73, 1-(1-phenylethyl)-6-(quinolin-6-yl)-1H-imidazo[4,5-b]pyrazin-2(3H)-one] | 5.1 to 10 µM | > 30 µM | 
CC(c1ccccc1F)n1c(=O)[nH]c2ncc(-c3cccc4ncccc34)nc21 (stereo not drawn) [Compound 51, 1-(1-(2-fluorophenyl)ethyl)-6-(quinolin-5-yl)-1H-imidazo[4,5-b]pyrazin-2(3H)-one] | 5.1 to 10 µM | 5.1 to 10 µM | 
CC(c1ccccc1)n1c(=O)[nH]c2ccc(-c3cccc4ncccc34)nc21 (stereo not drawn) [Compound 26, 3-(1-phenylethyl)-5-(quinolin-5-yl)-1H-imidazo[4,5-b]pyridin-2(3H)-one] | > 30 µM | 5.1 to 10 µM | 
O=c1[nH]c2ncc(-c3ccc(O)cc3)nc2n1CC1CCCCC1 [Compound 91, 1-(cyclohexylmethyl)-6-(4-hydroxyphenyl)-1H-imidazo[4,5-b]pyrazin-2(3H)-one] | 0.1 to 5 µM |  | 302 to 303 °C
CC(c1ccccc1)n1c(=O)[nH]c2ncc(-c3cccc(N)c3)nc21 (stereo not drawn) [Compound 80, 6-(3-aminophenyl)-1-(1-phenylethyl)-1H-imidazo[4,5-b]pyrazin-2(3H)-one] | 5.1 to 10 µM |  | 
O=c1[nH]c2ncc(-c3cccc4ncccc34)nc2n1Cc1ccccc1 [Compound 14, 1-benzyl-6-(quinolin-5-yl)-1H-imidazo[4,5-b]pyrazin-2(3H)-one] | 0.1 to 5 µM | > 30 µM | 
CC(C)n1c(=O)[nH]c2ncc(-c3ccc(O)cc3)nc21 [Compound 88, 6-(4-hydroxyphenyl)-1-isopropyl-1H-imidazo[4,5-b]pyrazin-2(3H)-one] | 0.1 to 5 µM |  | 323 to 324 °C
CC(C)Cn1c(=O)[nH]c2ncc(-c3ccc(O)cc3)nc21 [Compound 89, 6-(4-hydroxyphenyl)-1-isobutyl-1H-imidazo[4,5-b]pyrazin-2(3H)-one] | 0.1 to 5 µM |  | 290 to 291 °C
O=c1[nH]c2ncc(-c3ccc(O)cc3)nc2n1CC1CCOCC1 [Compound 6, 6-(4-hydroxyphenyl)-1-((tetrahydro-2H-pyran-4-yl)methyl)-1H-imidazo[4,5-b]pyrazin-2(3H)-one] | 0.1 to 5 µM |  | 
COc1ccc(C(C)C)cc1-c1cnc2[nH]c(=O)n(CC(C)(C)C)c2n1 [Compound 36, 6-(5-isopropyl-2-methoxyphenyl)-1-neopentyl-1H-imidazo[4,5-b]pyrazin-2(3H)-one] |  | > 30 µM | 
COc1ccc(C(C)C)cc1-c1cnc2[nH]c(=O)n([C@H]3CCOC3)c2n1 [Compound 29, (S)-6-(5-isopropyl-2-methoxyphenyl)-1-(tetrahydrofuran-3-yl)-1H-imidazo[4,5-b]pyrazin-2(3H)-one] |  | > 30 µM | 
O=c1[nH]c2ncc(-c3ccc(O)cc3)nc2n1CC1CCCC1 [Compound 87, 1-(cyclopentylmethyl)-6-(4-hydroxyphenyl)-1H-imidazo[4,5-b]pyrazin-2(3H)-one] | 0.1 to 5 µM |  | 296 to 297 °C
O=c1[nH]c2ncc(-c3ccc(O)cc3)nc2n1CC1CCCOC1 (stereo not drawn) [Compound 90, 6-(4-hydroxyphenyl)-1-((tetrahydro-2H-pyran-3-yl)methyl)-1H-imidazo[4,5-b]pyrazin-2(3H)-one] | 0.1 to 5 µM |  | 271 to 272 °C
C[C@@H](c1ccccc1)n1c(=O)n(C)c2ncc(-c3cccc4ncccc34)nc21 [Compound 49, (S)-1-methyl-3-(1-phenylethyl)-5-(quinolin-5-yl)-1H-imidazo[4,5-b]pyrazin-2(3H)-one] |  | > 30 µM | 
COc1ccc(C(C)C)cc1-c1cnc2[nH]c(=O)n(CC3CCCCC3)c2n1 [Compound 35, 1-(cyclohexylmethyl)-6-(5-isopropyl-2-methoxyphenyl)-1H-imidazo[4,5-b]pyrazin-2(3H)-one] |  | > 30 µM | 
C[C@H](c1ccccc1)n1c(=O)[nH]c2nccnc21 [Compound 16, (R)-1-(1-phenylethyl)-1H-imidazo[4,5-b]pyrazin-2(3H)-one] |  | > 30 µM | 
CC(c1ccccc1)n1c(=O)[nH]c2ncc(-c3ccc(C(F)(F)F)cc3)nc21 (stereo not drawn) [Compound 83, 1-(1-phenylethyl)-6-(4-(trifluoromethyl)phenyl)-1H-imidazo[4,5-b]pyrazin-2(3H)-one] |  | > 30 µM | 
CC(c1ccccc1)n1c(=O)[nH]c2ncc(-c3cccc(N(C)C)c3)nc21 (stereo not drawn) [Compound 81, 6-(3-(dimethylamino)phenyl)-1-(1-phenylethyl)-1H-imidazo[4,5-b]pyrazin-2(3H)-one] | > 30 µM |  | 
CC(c1ccccc1)n1c(=O)oc2ncc(-c3cccc4ncccc34)nc21 (stereo not drawn) [Compound 86, 3-(1-phenylethyl)-5-(quinolin-5-yl)oxazolo[5,4-b]pyrazin-2(3H)-one] | > 30 µM |  | 
O=c1[nH]c2ncc(-c3cccc4ncccc34)nc2n1CC1CCNCC1 [Compound 74, 1-(piperidin-4-ylmethyl)-6-(quinolin-5-yl)-1H-imidazo[4,5-b]pyrazin-2(3H)-one] |  | > 30 µM | 
CC(c1ccncc1)n1c(=O)[nH]c2ncc(-c3cccc4ncccc34)nc21 (stereo not drawn) [Compound 67, 1-(1-(pyridin-4-yl)ethyl)-6-(quinolin-5-yl)-1H-imidazo[4,5-b]pyrazin-2(3H)-one] |  | 20.1 to 30 µM | 
CC(c1ccccc1)n1c(=O)[nH]c2ncc(-c3cccc4ncccc34)cc21 (stereo not drawn) [Compound 63, 1-(1-phenylethyl)-6-(quinolin-5-yl)-1H-imidazo[4,5-b]pyridin-2(3H)-one] |  | > 30 µM | 
COc1ccc(C(C)C)cc1-c1cnc2[nH]c(=O)n(CC3CC3)c2n1 [Compound 33, 1-(cyclopropylmethyl)-6-(5-isopropyl-2-methoxyphenyl)-1H-imidazo[4,5-b]pyrazin-2(3H)-one] |  | > 30 µM | 
C[C@@H](c1ccccc1)n1c(=O)[nH]c2ncc(-c3cccc4ccccc34)nc21 [Compound 7, (S)-6-(naphthalen-1-yl)-1-(1-phenylethyl)-1H-imidazo[4,5-b]pyrazin-2(3H)-one] |  | > 30 µM | 
CC(c1ccccc1)n1c(=O)[nH]c2ncc(-c3cccc4ncccc34)nc21 (stereo not drawn) [Compound 42, 1-(1-phenylethyl)-6-(quinolin-5-yl)-1H-imidazo[4,5-b]pyrazin-2(3H)-one] |  | 0.1 to 5 µM | 
C[C@@H](c1ccccc1)n1c(=O)[nH]c2nccnc21 [Compound 17, (S)-1-(1-phenylethyl)-1H-imidazo[4,5-b]pyrazin-2(3H)-one] |  | > 30 µM | 
